Experimental data as given in the NIST ThermoML archive (doi:10.1021/je400679k).

Assay: xn = mol fraction of the nth substance listed
Conditions: 101 kPa, Liquid, Vibrating tube method

CNCCCN [N-methyl-1,3-diaminopropane] + O
mass density [kg/m3]
Conditions	283.15 K	293.15 K	303.15 K	313.15 K	323.15 K	333.15 K	343.15 K	353.15 K	363.15 K
x1 = 0.0051	998.237	996.63	993.985	990.476	986.217	981.304	975.769	969.7	963.045
x1 = 0.02	994.774	992.593	989.479	985.566	980.949	975.762	969.886	963.52	956.663
x1 = 0.04	992.84	989.571	985.557	980.873	975.589	969.758	963.394	956.509	949.281
x1 = 0.0599	991.664	987.189	982.161	976.614	970.587	964.115	957.198	949.885	942.172
x1 = 0.08	991.853	986.2	980.175	973.774	967.022	959.923	952.467	944.681	936.552
x1 = 0.1001	990.982	984.3	977.4	970.258	962.871	955.236	947.339	939.185	930.768
x1 = 0.1496	985.446	977.467	969.396	961.197	952.86	944.358	935.674	926.784	917.665
x1 = 0.2001	975.602	967.23	958.776	950.269	941.571	932.714	923.678	914.46	905.046
x1 = 0.2996	953.237	944.826	936.29	927.601	918.738	909.696	900.476	891.074	881.47
x1 = 0.4001	932.582	924.145	915.578	906.849	897.972	888.926	879.715	870.324	860.741
x1 = 0.4995	915.228	906.757	898.165	889.428	880.556	871.523	862.344	852.997	843.475
x1 = 0.5998	900.588	892.069	883.427	874.666	865.773	856.742	847.577	838.26	828.782
x1 = 0.6995	888.711	880.119	871.429	862.629	853.712	844.674	835.508	826.212	816.767
x1 = 0.7976	879.041	870.383	861.635	852.787	843.839	834.781	825.611	816.324	806.909
x1 = 0.901	869.652	860.902	852.078	843.17	834.181	825.1	815.925	806.659	797.262
x1 = 1	860.459	851.605	842.69	833.715	824.673	815.559	806.37	797.093	787.723

CNCCCN [N-methyl-1,3-diaminopropane] + CN(C)CCO
mass density [kg/m3]
Conditions	x1 = 0.0998	x1 = 0.2	x1 = 0.3001	x1 = 0.4	x1 = 0.4997	x1 = 0.5993	x1 = 0.6999	x1 = 0.799	x1 = 0.9	x1 = 1
283.15 K	893.869	892.03	889.578	886.723	883.31	879.367	875.276	871.091	866.659	860.459
293.15 K	885.469	883.599	881.113	878.225	874.783	870.8	866.663	862.415	857.904	851.605
303.15 K	876.968	875.071	872.551	869.634	866.166	862.148	857.97	853.666	849.087	842.69
313.15 K	868.337	866.42	863.872	860.932	857.442	853.398	849.183	844.832	840.193	833.715
323.15 K	859.574	857.639	855.069	852.112	848.606	844.543	840.3	835.912	831.218	824.673
333.15 K	850.654	848.712	846.131	843.164	839.647	835.571	831.314	826.896	822.163	815.559
343.15 K	841.562	839.622	837.042	834.073	830.555	826.477	822.212	817.78	813.022	806.37
353.15 K	832.286	830.357	827.791	824.83	821.322	817.252	812.995	808.563	803.789	797.093
363.15 K	822.801	820.903	818.354	815.413	811.93	807.876	803.636	799.198	794.432	787.723
